Experimental data reported in US5846566A, “Microcapsules for the controlled release of acetylsalicylic acid in the gastrointestinal environment” (Flamel Technologies, priority 1993, dated 1998).

Columns and labels:
Sprague-Dawley rats = test: acute oral toxicity in rats; format: in vivo, rat (Sprague-Dawley)
Method: (§1) The microcapsules of aspirin M1 prepared according to Example 1 were subjected to a toxicological study by comparison with commercial aspirin (CA) in the form of a white powder. The acute toxicity of these two pharmaceutical forms of aspirin was evaluated and compared by oral administration to rats.
(§2) Each of the two formulations of the product was administered orally to groups of 10 Sprague-Dawley rats (5 males and 5 females) in a volume of 10 ml/kg and in suspension in 0.5% carboxymethyl cellulose. […] All the animals were placed on a water diet before the treatment.
(§3) The mortality, the general behavior and the weight change of the surviving animals were followed for a period of 14 days after the single administration of the product. An anatomicopathological examination was carried out on each of the animals found dead or sacrificed at the end of the study.
(§4) The LD50 was calculated by Finney's method.

[1] = acute oral toxicity in rats; format: in vivo, rat (Sprague-Dawley); settings: rat, in vivo, 14 days
Method: as §1, §2, §3, §4

6-ketoprostaglandin F1α = test: urinary excretion of 6-ketoprostaglandin F1α (renal origin), repeated administration; format: in vivo, human; settings: 28 days; 320 mg encapsulated or 350 mg control ASA daily
Method: (§5) Twelve healthy male volunteers were assigned to one or other of the following two treatments according to a randomization schedule obtained by drawing lots. Group A received one 320 mg gelatin capsule of encapsulated ASA (microcapsules M1 of Example 1) orally every morning for 28 days. Group B received 350 mg of non-encapsulated control ASA in solution every morning for 28 days.
(§6) During each period, urine samples were taken from each subject for assaying the creatininuria and measuring the platelet and vascular prostaglandins.
(§7) The morning urine was collected at 7 am on days D1, D2, D14, D27 and D28. The subjects were asked to empty their bladder between midnight and 1 am and then not to urinate again until the morning so that the 6-hour urine could be obtained. The morning urination was performed before the subjects got up. Of each sample collected:
(§8) 40 ml were transferred to two appropriately labeled 20 ml polypropylene tubes, which were then frozen immediately at -20° C.
(§9) Thromboxane B2 and 6-ketoprostaglandin F1α are metabolites of […] of renal origin.

11-dehydrothromboxane B2 = test: inhibition of urinary 11-dehydrothromboxane B2, repeated administration; format: in vivo, human; settings: 28 days; 320 mg encapsulated or 350 mg control ASA daily
Method: as §5, §6
as §7, with “collected: […]” for “collected:”
(§10) The aspirin and salicylic acid were analyzed using an HPLC method specially developed for assaying low levels in biological media. The serum thromboxane B2 was analyzed using an enzyme immunoassay method described by […] et al. [Analytical Chemistry 57, 1170-1173 (1985); Ann. […] For the urine samples, the 11-dehydrothromboxane B2, dinorthromboxane B2 and dinor-6-ketoprostaglandin F1α were analyzed by the method cited above, with prior extraction in the solid phase and purification by thin layer chromatography. […]

serum thromboxane B2 = test: inhibition of serum thromboxane B2 after repeated administration for 28 days; format: in vivo, human; settings: as from the third day of treatment; 320 mg encapsulated or 350 mg control ASA daily
Method: as §5
In both cases, the subjects took the treatments with 200 ml of water.
Samples (5 cl) for measurement of the serum thromboxane B2 were taken before administration of the daily treatment on D1, D2, D3, D4, D5, D14, D21, D27, D28 and D42.
The aspirin and salicylic acid were analyzed using an HPLC method specially developed for assaying low levels in biological media. The serum thromboxane B2 was analyzed using an enzyme immunoassay method described by […] et al. [Analytical Chemistry 57, 1170-1173 (1985); Ann. Biol. Clin. 43, 475-484 (1985)]. For the urine samples, the 11-dehydrothromboxane B2, dinorthromboxane B2 and dinor-6-ketoprostaglandin F1α were analyzed by the method cited above, with prior extraction in the solid phase and purification by thin layer chromatography. This method was validated by gas chromatography coupled with mass spectrometry using a negative ion ionization detector [LELLOUCHE et al., Prostaglandine 40, 297-310 (1990)].

[2] = system: urinary dinorthromboxane B2; test: inhibition of urinary dinorthromboxane B2, repeated administration; format: in vivo, human; settings: 28 days; 320 mg encapsulated or 350 mg control ASA daily
Method: as §5, §6
as §7, with “collected: […]” for “collected:”
as §10

prostacycline = test: inhibition of prostacycline (urinary dinor-6-ketoprostaglandin F1α), repeated administration; format: in vivo, human; settings: 28 days; 320 mg encapsulated or 350 mg control ASA daily
Method: as §5, §6
as §7, with “collected: […]” for “collected:”
as §10

[3] = system: thromboxane B2 of renal origin; test: urinary excretion of thromboxane B2 (renal origin), repeated administration; format: in vivo, human; settings: 28 days; 320 mg encapsulated or 350 mg control ASA daily
Method: as §5, §6, §7, §8, §9

thromboxane = settings: daily dose; very substantially below the minimum percentage; cited from earlier work
vascular prostacycline = settings: daily dose; cited from earlier work

CC(=O)Oc1ccccc1C(=O)O [CA, acetylsalicylic acid]
autopsy findings (Sprague-Dawley rats; 740 and 1110 mg/kg): no macroscopic anomalies
autopsy findings (Sprague-Dawley rats; 1670 and 2500 mg/kg, animals found dead): abnormally blackish coloration of the liver, a discoloration with wall thickening in the digestive tract (intestines and stomach) and reddish petechiae in the stomach
weight change (Sprague-Dawley rats; CA 740-2500 mg/kg (between day 1 and day 5), CRA 2500 mg/kg (throughout the study)): slight drop in the weight gain, related to the dose administered
general behavior (Sprague-Dawley rats; CA 740-2500 mg/kg, CRA 2500 mg/kg): a drop in the spontaneous activity, related to the dose administered, and piloerection
LD50, lower limit of the confidence interval (Sprague-Dawley rats; probability threshold of 95%): 936 mg/kg
LD50, upper limit of the confidence interval (Sprague-Dawley rats; probability threshold of 95%): 2394 mg/kg
LD50 at 336 h [1]: 1430 mg/kg

CC(=O)Oc1ccccc1C(=O)O [control ASA, acetylsalicylic acid]
inhibition of prostaglandins of renal origin (6-ketoprostaglandin F1α, second value pair) (6-ketoprostaglandin F1α): 34.6%
inhibition of urinary metabolite of thromboxane (11-dehydrothromboxane B2, first value pair) (11-dehydrothromboxane B2): 75.6%
inhibition of thromboxane originating from the platelets (serum thromboxane B2): 98.15%
inhibition of urinary metabolite of thromboxane (dinorthromboxane B2, second value pair) [2]: 68.9%
inhibition of the prostacycline (prostacycline): 43.2%
inhibition of prostaglandins of renal origin (thromboxane B2, first value pair) [3]: 42.8%

CC(=O)Oc1ccccc1C(=O)O [conventional aspirin, acetylsalicylic acid]
thromboxane inhibition (thromboxane): < 95%
inhibition of vascular prostacycline (vascular prostacycline): 25%
